The values that follow come from PMC9518246, “Design and synthesis of new indole drug candidates to treat Alzheimer’s disease and targeting neuro-inflammation using a multi-target-directed ligand (MTDL) strategy” (Journal of Enzyme Inhibition and Medicinal Chemistry, 2022).

Molecules are shown by their SMILES. Where “and” joins values, the source holds several entries; their conditions need not be identical. Equal values may be shown once.

One series addresses AChE (Homo sapiens, UniProt P22303). The series is described as follows: biochemical. The conditions noted are these: for IC50: modified Ellman, read-out: AChE inhibitory activity IC50. The protocol: (§1) The effects of twenty synthetic compounds were evaluated for AChE and BuChE inhibition using the modified method of Ellman et al.[33] […] AChE and BuChE are found in the brains of mammals. Genetically, structurally, and kinetically, the two kinds vary. In the human brain, BuChE is found in glial cells and neurons as well as in plaques and tangles in AD patients. […] BuChE may replace AChE by hydrolysing brain acetylcholine in some conditions, such as in mice nullizygote for AChE or in AD patients in advanced stages of the disease[34]^,[35].
In general terms: In Ellman's method for cholinesterases, released thiocholine reacts with DTNB.

Another series deals with BuChE (Homo sapiens, UniProt P06276). In words: biochemical. The following applies: modified Ellman; read-out: BuChE inhibitory activity IC50. Here is the method:
as §1

A further series concerns the target T1, Aβ1–42 (Homo sapiens, UniProt P05067).
T1 construct: purchased BioVision K570-100
In words: Inhibition of Aβ1-42 self-induced aggregation (BioVision ligand screening kit). It counts as biochemical. The conditions noted are these: µM. The source says:
Screening Aβ42 ligands that could prevent aggregation is critical for developing potential therapeutic treatments. In BioVision’s Beta-Amyloid 1–42 (Aβ42) Ligand Screening kit, a dye binds to the beta-sheets of an aggregated amyloid peptide resulting in an intense fluorescent product at wave length 450 nm using a BIOLINE ELISA reader. In the presence of an Aβ42 ligand, this reaction is impeded/abolished resulting in a decrease or total loss of fluorescence. This assay is useful in screening Aβ42 ligands for developing potential therapeutic agents against AD[42]. The assessment was performed according to BioVision’s Beta-Amyloid 1–42 (Aβ42) Ligand Screening Kit Catalog No. K570-100.

T1 sequence (P05067 672-713 limits assumed): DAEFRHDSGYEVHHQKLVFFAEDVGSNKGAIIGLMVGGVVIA
Sequence of BuChE (P06276 29-602): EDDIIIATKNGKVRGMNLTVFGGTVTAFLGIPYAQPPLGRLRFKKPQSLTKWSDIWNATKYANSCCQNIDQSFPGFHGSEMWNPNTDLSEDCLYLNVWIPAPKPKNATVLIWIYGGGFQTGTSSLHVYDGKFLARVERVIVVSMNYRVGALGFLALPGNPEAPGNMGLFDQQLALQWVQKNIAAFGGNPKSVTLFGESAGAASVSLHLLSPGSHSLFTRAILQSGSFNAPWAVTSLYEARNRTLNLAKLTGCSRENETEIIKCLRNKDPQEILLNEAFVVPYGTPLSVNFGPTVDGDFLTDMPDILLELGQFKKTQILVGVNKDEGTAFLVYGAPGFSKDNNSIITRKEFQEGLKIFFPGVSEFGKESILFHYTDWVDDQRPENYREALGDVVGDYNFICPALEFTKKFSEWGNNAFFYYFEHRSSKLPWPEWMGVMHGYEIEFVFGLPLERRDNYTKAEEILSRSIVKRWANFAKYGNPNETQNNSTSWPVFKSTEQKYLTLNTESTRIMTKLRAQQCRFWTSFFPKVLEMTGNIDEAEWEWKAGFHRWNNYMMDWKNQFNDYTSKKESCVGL
Sequence of AChE (P22303 32-614): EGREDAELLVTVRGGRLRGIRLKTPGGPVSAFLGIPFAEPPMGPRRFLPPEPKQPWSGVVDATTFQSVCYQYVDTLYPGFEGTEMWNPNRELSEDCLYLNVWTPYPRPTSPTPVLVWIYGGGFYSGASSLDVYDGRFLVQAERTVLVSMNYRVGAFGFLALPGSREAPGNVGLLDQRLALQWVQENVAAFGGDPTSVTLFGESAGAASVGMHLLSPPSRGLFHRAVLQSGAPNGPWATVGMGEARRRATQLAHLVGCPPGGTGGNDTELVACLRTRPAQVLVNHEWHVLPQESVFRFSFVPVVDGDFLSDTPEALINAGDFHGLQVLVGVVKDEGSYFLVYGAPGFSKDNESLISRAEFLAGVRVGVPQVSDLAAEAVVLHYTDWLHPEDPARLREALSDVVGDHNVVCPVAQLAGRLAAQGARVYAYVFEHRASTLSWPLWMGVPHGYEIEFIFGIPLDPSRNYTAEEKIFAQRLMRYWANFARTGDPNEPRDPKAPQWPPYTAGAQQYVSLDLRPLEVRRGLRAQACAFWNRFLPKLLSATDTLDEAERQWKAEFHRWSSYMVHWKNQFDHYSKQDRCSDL

For `CS(=O)(=O)n1cc(/C=C(/C(=O)O)c2ccccc2)c2ccccc21`, the melting point – broadly, the temperature, or range, at which the solid turns liquid – lay in the range of 181 to 183 °C. As for `COc1cc(CC(=O)Nc2ccc(C(=O)/C=C/c3cn(S(C)(=O)=O)c4ccccc34)cc2)cc(OC)c1OC`, the melting point fell in the range of 176 to 178 °C. The molecule `CS(=O)(=O)n1cc(/C=N/NC(=O)c2ccccc2)c2ccccc21` gave a melting point of 114 to 116 °C. In turn, `COc1cc(-c2c(C#N)c(N)n(/N=C/c3cn(S(C)(=O)=O)c4ccccc34)c(=O)c2C#N)cc(OC)c1OC` gave a melting point of 210 to 212 °C. `CS(=O)(=O)n1cc(/C=C(/C(=O)O)c2ccc(Cl)cc2)c2ccccc21` [Compound 3b, (E)-2–(4-Chlorophenyl)-3-[1-(methylsulfonyl)-1H-indol-3-yl]acrylic acid]: on AChE, the “AChE inhibition in words, compared to reference drugs (tacrine and donepezil)” value is listed as “less activity”. Turning to `COc1cc(/C(=C\c2cn(S(C)(=O)=O)c3ccccc23)C(=O)O)cc(OC)c1OC` [Compound 3c, (E)-3-[1-(Methylsulfonyl)-1H-indol-3-yl]-2–(3,4,5-trimethoxyphenyl)acrylic acid], the IC50 (as a rule, the concentration needed to halve the response being measured) on AChE is 41.1 nM; on BuChE it was 117 nM; against Aβ1–42 it was 6.91 µM.

With `CS(=O)(=O)n1cc(/C=C(\C(=O)N2CCCCC2)c2ccc(Cl)cc2)c2ccccc21` [Compound 4a, (E)-2–(4-Chlorophenyl)-3-[1-(methylsulfonyl)-1H-indol-3-yl]-1-(pipridin-1-yl)prop-2-en-1-one], the half-inhibitory concentration (IC50) on AChE was 132 to 164 nM; on BuChE, 41.7 to 74.1 nM and 36.9 to 80.4 nM; at Aβ1–42 it was 22.4 µM. Consider `CS(=O)(=O)n1cc(/C=C(/C(=O)Nc2cccnc2)c2ccc(Cl)cc2)c2ccccc21` [Compound 4b, (E)-2–(4-Chlorophenyl)-3-[1-(methylsulfonyl)-1H-indol-3-yl]-N-(pyridin-3-yl)acrylamide], for which the IC50 at AChE was 132 to 164 nM; at BuChE, 41.7 to 74.1 nM and 36.9 to 80.4 nM; at Aβ1–42, 13.8 µM. With `CS(=O)(=O)n1cc(/C=C(\C(=O)N2CCN(c3ncccn3)CC2)c2ccc(Cl)cc2)c2ccccc21` [Compound 4c, (E)-2–(4-Chlorophenyl)-3-[1-(methylsulfonyl)-1H-indol-3-yl]-1-[4-(pyrimidin-2-yl)piprazin-1-yl]prop-2-en-1-one], the “AChE inhibition in words, compared to reference drugs (tacrine and donepezil)” value at AChE was “less activity”. For the molecule `CS(=O)(=O)n1cc(C=C(C(=O)N2CCC(Cc3ccccc3)CC2)c2ccc(Cl)cc2)c2ccccc21` [Compound 4d, (E)-1–(4-Benzylpipridin-1-yl)-2–(4-chlorophenyl)-3-[1-(methylsulfonyl)-1H-indol-3-yl]prop-2-en-1-one], the IC50 at AChE is 132 to 164 nM; at BuChE, 41.7 to 74.1 nM and 36.9 to 80.4 nM; at Aβ1–42, 8.76 µM. In the case of `CS(=O)(=O)n1cc(/C=C/C(=O)c2ccc(NC(=O)Cc3ccccc3)cc2)c2ccccc21` [Compound 5a, (E)-N-{4-[3–(1-(methylsulfonyl)-1H-indol-3-yl)acryloyl]phenyl}-2-phenylacetamide], at AChE, the “AChE inhibition in words, compared to reference drugs (tacrine and donepezil)” value was “less activity”. `CS(=O)(=O)n1cc(/C=C/C(=O)c2cccc(NC(=O)CN3CCC(Cc4ccccc4)CC3)c2)c2ccccc21` [Compound 6a, (E)-2–(4-Benzylpiperidin-1-yl)-N-{3-[3–(1-(methylsulfonyl)-1H-indol-3-yl)acryloyl]phenyl}acetamide]: at AChE, the “AChE inhibition in words, compared to reference drugs (tacrine and donepezil)” value is “less activity”. Regarding `CS(=O)(=O)n1cc(/C=N/NC(=O)Cc2ccccc2)c2ccccc21` [Compound 7b, (E)-N'-{[1-(Methylsulfonyl)-1H-indol-3-yl]methylene}-2-phenylacetohydrazide], the “AChE inhibition in words, compared to reference drugs (tacrine and donepezil)” value at AChE is “less activity”. For the molecule `CS(=O)(=O)n1cc(/C=N/NC(=O)Cc2ccc(Cl)cc2)c2ccccc21` [Compound 7c, (E)-2–(4-Chlorophenyl)-N'-{[1-(methylsulfonyl)-1H-indol-3-yl]methylene}acetohydrazide], the IC50 on AChE stood at 89.1 nM; on BuChE, 76 nM; on Aβ1–42, 14.9 µM. As to `COc1ccc(-c2c(C#N)c(N)n(/N=C/c3cn(S(C)(=O)=O)c4ccccc34)c(=O)c2C#N)cc1` [Compound 9a, (E)-6-Amino-4-(4-methoxyphenyl)-1-{[(1-(methylsulfonyl)-1H-indol-3-yl)methylene]amino}-2-oxo-1,2-dihydropyridine-3,5-dicarbonitrile], the “AChE inhibition in words, compared to reference drugs (tacrine and donepezil)” value on AChE is given as “less activity”. Take `COc1ccc(-c2c(C#N)c(N)n(/N=C/c3cn(S(C)(=O)=O)c4ccccc34)c(=O)c2C#N)cc1OC` [Compound 9b, (E)-6-Amino-4–(3,4-dimethoxyphenyl)-1-{[(1-(methylsulfonyl)-1H-indol-3-yl)methylene]amino}-2-oxo-1,2-dihydropyridine-3,5-dicarbonitrile]: at AChE, the “AChE inhibition in words, compared to reference drugs (tacrine and donepezil)” value was “less activity”. Turning to `CCn1c(N)c(C(=O)N/N=C/c2cn(S(C)(=O)=O)c3ccccc23)sc1=S` [Compound 10a, (E)-4-Amino-3-ethyl-N'-{[1-(methylsulfonyl)-1H-indol-3-yl]methylene}-2-thioxo-2,3-dihydrothiazole-5-carbohydrazide], at AChE, the “AChE inhibition in words, compared to reference drugs (tacrine and donepezil)” value is “less activity”. As to `CS(=O)(=O)n1cc(/C=N/NC(=O)c2sc(=S)n(-c3ccccc3)c2N)c2ccccc21` [Compound 10b, (E)-4-Amino-N'-{[1-(methylsulfonyl)-1H-indol-3-yl]methylene}-3-phenyl-2-thioxo-2,3-dihydrothiazole-5-carbohydrazide], the results for the half-maximal inhibitory concentration (IC50) on AChE, on BuChE and against Aβ1–42 were 64.5 nM, 47.4 nM and 5.16 µM, respectively.
